Source: ChEMBL document CHEMBL4610081, “Anti-inflammatory Metabolites from Chaetomium nigricolor” (J Nat Prod, 2020)
Activity calls are given as the source filed them. No cut-off for these calls is given here.

System: RAW264.7
Assay: Antiinflammatory activity against mouse RAW264.7 cells assessed as inhibition of LPS-induced NO production preincubated for 3 hrs followed by LPS-stimulation and measured after 24 hrs by Griess reagent based assay
Format: functional, cell-based

Row | SMILES | Activity
1 | CC(=O)OCc1ccc(C(=O)O)o1 | inactive
2 | COC(=O)/C=C/C(=O)O | inactive
3 | COC(=O)CCC(=O)OCc1ccc(C(=O)O)o1 | inactive
4 | COc1cc(C)c2c(OC)cc(=O)oc2c1-c1c(OC)cc(C)c2c(OC)cc(=O)oc12 | inactive
5 | COc1cc(OC)c2c(c1)cc(O)c1c(=O)cc(C)oc12 | inactive
